According to US20250179061A1 (SIRONAX LTD., priority 2022, published 2025):

Tested on: HT-29 cells
Test: HT-29 necroptosis cell viability assay (TNF-α/SMAC mimetic/zVAD-FMK, CellTiter-Glo)
Type: cell-based
Conditions: Homo sapiens, HT-29, HT-29 cells, necroptosis induced by TNF-α/SMAC mimetic/zVAD-FMK, CellTiter-Glo; read-out: Activity (IC50 class)
Method in brief: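 HT-29 cells (~5,000/well, overnight) in FBS-free McCoy's 5A with TNF-α 10 ng/ml, SMAC mimetic 6 μM and zVAD-FMK 10 μM plus 10-point 1:3 compound titration, 20 h at 37°C. ATP measured by CellTiter-Glo luminescence; IC50 as geometric mean of duplicates.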

Compound	IC50 [nM]
Cc1ncn(Cc2ccc(-n3ncn(Cc4c(F)cccc4F)c3=O)cc2)c1C#N [Example 657, 3-[[4-[4-[(2,6-difluorophenyl)methyl]-5-oxo-1,2,4-triazol-1-yl]phenyl]methyl]-5-methyl-imidazole-4-carbonitrile]	< 100
O=c1n(Cc2c(F)cccc2F)cnn1-c1ccc(Oc2cncs2)cc1 [Example 658]	< 100
Nc1nc(COc2ccc(-n3ncn(Cc4c(F)cccc4F)c3=O)cc2F)cs1 [Example 659, 2-(4-((2-aminothiazol-4-yl)methoxy)-3-fluorophenyl)-4-(2,6-difluorobenzyl)-2,4-dihydro-3H-1,2,4-triazol-3-one]	100 to 1000
CC(C)(C)CNC(=O)c1cc(Oc2ccc(-n3ncn(Cc4c(F)cccc4F)c3=O)cc2)ccn1 [Example 660, 4-(4-(4-(2,6-difluorobenzyl)-5-oxo-4,5-dihydro-1H-1,2,4-triazol-1-yl)phenoxy)-N-neopentylpicolinamide]	100 to 1000
COc1cc(Oc2ccc(-n3ncn(Cc4c(F)cccc4F)c3=O)cc2)ccn1 [Example 661, 4-(2,6-difluorobenzyl)-2-(4-((2-methoxypyridin-4-yl)oxy)phenyl)-2,4-dihydro-3H-1,2,4-triazol-3-one]	100 to 1000
O=c1n(Cc2c(F)cccc2F)cnn1-c1ccc(Oc2ccnc(Cl)c2)cc1 [Example 662, 2-(4-((2-chloropyridin-4-yl)oxy)phenyl)-4-(2,6-difluorobenzyl)-2,4-dihydro-3H-1,2,4-triazol-3-one]	100 to 1000
Cc1nc(Br)nn1Cc1ccc(-n2ncn(Cc3c(F)cccc3F)c2=O)cc1 [Example 663, 2-(4-((3-bromo-5-methyl-1H-1,2,4-triazol-1-yl)methyl)phenyl)-4-(2,6-difluorobenzyl)-2,4-dihydro-3H-1,2,4-triazol-3-one]	100 to 1000
Cc1nc(N2CC(C)(C#N)C2)cn1Cc1ccc(-n2ncn(Cc3c(F)cccc3F)c2=O)cc1 [Example 664, 1-(1-(4-(4-(2,6-difluorobenzyl)-5-oxo-4,5-dihydro-1H-1,2,4-triazol-1-yl)benzyl)-2-methyl-1H-imidazol-4-yl)-3-methylazetidine-3-carbonitrile]	1000 to 10000
Cc1nc(N2CC(C)(C#N)C2)nn1Cc1ccc(-n2ncn(Cc3c(F)cccc3F)c2=O)cc1 [Example 665, 1-(1-(4-(4-(2,6-difluorobenzyl)-5-oxo-4,5-dihydro-1H-1,2,4-triazol-1-yl)benzyl)-5-methyl-1H-1,2,4-triazol-3-yl)-3-methylazetidine-3-carbonitrile]	1000 to 10000
Cc1nc(Br)cn1Cc1ccc(-n2ncn(Cc3c(F)cccc3F)c2=O)cc1 [Example 666, 2-(4-((4-bromo-2-methyl-1H-imidazol-1-yl)methyl)phenyl)-4-(2,6-difluorobenzyl)-2,4-dihydro-3H-1,2,4-triazol-3-one]	< 100
Cc1nc(C(N)=O)sc1Oc1ccc(-n2nc3n(c2=O)C(c2ccc(F)cc2)CC3)cc1F (centres unmarked) [Example 667, 5-(2-fluoro-4-(5-(4-fluorophenyl)-3-oxo-6,7-dihydro-3H-pyrrolo[1,2-c][1,2,4]triazol-2(5H)-yl)phenoxy)-4-methylthiazole-2-carboxamide]	< 100
COc1cncc(Oc2ccc(-n3ncn(Cc4c(F)cccc4F)c3=O)cc2)c1 [Example 671, 4-(2,6-difluorobenzyl)-2-(4-((5-methoxypyridin-3-yl)oxy)phenyl)-2,4-dihydro-3H-1,2,4-triazol-3-one]	< 100
O=c1n(Cc2c(F)cccc2F)cnn1-c1ccc(Oc2ccnc(N3CC4(CCOCC4)C3)c2F)cc1 [Example 672, 4-(2,6-difluorobenzyl)-2-(4-((3-fluoro-2-(7-oxa-2-azaspiro[3.5]nonan-2-yl)pyridin-4-yl)oxy)phenyl)-2,4-dihydro-3H-1,2,4-triazol-3-one]	< 100
O=c1n(Cc2c(F)cccc2F)cnn1-c1ccc(Oc2c(Cl)ccnc2N2CC3(CCOCC3)C2)cc1 [Example 673, 2-(4-((4-chloro-2-(7-oxa-2-azaspiro[3.5]nonan-2-yl)pyridin-3-yl)oxy)phenyl)-4-(2,6-difluorobenzyl)-2,4-dihydro-3H-1,2,4-triazol-3-one]	> 10000
CCOC1CN(c2ncc(F)c(Oc3ccc(-n4ncn(Cc5c(F)cccc5F)c4=O)cc3)c2F)C1 [Example 674, 4-(2,6-difluorobenzyl)-2-(4-((2-(3-ethoxyazetidin-1-yl)-3,5-difluoropyridin-4-yl)oxy)phenyl)-2,4-dihydro-3H-1,2,4-triazol-3-one]	< 100
CN(C)c1cc(C#N)ccc1Oc1ccc(-n2ncn(Cc3c(F)cccc3F)c2=O)cc1F [Example 676, 4-(4-(4-(2,6-difluorobenzyl)-5-oxo-4,5-dihydro-1H-1,2,4-triazol-1-yl)-2-fluorophenoxy)-3-(dimethylamino)benzonitrile]	< 100
CN(C)c1ccccc1Oc1ccc(-n2nc(Cl)n(Cc3ccccc3)c2=O)cc1 [Example 677, 4-benzyl-5-chloro-2-(4-(2-(dimethylamino)phenoxy)phenyl)-2,4-dihydro-3H-1,2,4-triazol-3-one]	100 to 1000
Nc1ccccc1Oc1ccc(-n2nc(Cl)n(Cc3ccccc3)c2=O)cc1 [Example 679, 2-(4-(2-aminophenoxy)phenyl)-4-benzyl-5-chloro-2,4-dihydro-3H-1,2,4-tirazol-3-one]	< 100
O=c1n(Cc2c(F)cccc2F)cnn1-c1ccc(Oc2cc(N3CC4(C3)CN(C3CC3)C4)ncc2F)c(F)c1 [Example 680, 2-(4-((2-(6-cyclopropyl-2,6-diazaspiro[3.3]heptan-2-yl)-5-fluoropyridin-4-yl)oxy)-3-fluorophenyl)-4-(2,6-difluorobenzyl)-2,4-dihydro-3H-1,2,4-triazol-3-one]	< 100
O=c1n(-c2ccc(N3CCOc4ccccc43)cc2)nc(Cl)n1Cc1ccccc1 [Example 681, 4-benzyl-5-chloro-2-(4-(2,3-dihydro-4H-benzo[b][1,4]oxazin-4-yl)phenyl)-2,4-dihydro-3H-1,2,4-triazol-3-one]	100 to 1000
N#CC1CC(n2cccc(Cc3ccc(-n4ncn(Cc5c(F)cccc5F)c4=O)cc3)c2=O)C1 (centres unmarked) [Example 682, 3-(3-(4-(4-(2,6-difluorobenzyl)-5-oxo-4,5-dihydro-1H-1,2,4-triazol-1-yl)benzyl)-2-oxopyridin-1(2H)-yl)cyclobutane-1-carbonitrile]	100 to 1000
COc1ncccc1Cc1ccc(-n2ncn(Cc3c(F)cccc3F)c2=O)cc1 [Example 683, 4-(2,6-difluorobenzyl)-2-(4-((2-methoxypyridin-3-yl)methyl)phenyl)-2,4-dihydro-3H-1,2,4-triazol-3-one]	< 100
N#CC1CC(Oc2ncccc2Cc2ccc(-n3ncn(Cc4c(F)cccc4F)c3=O)cc2)C1 (centres unmarked) [Example 684, 3-((3-(4-(4-(2,6-difluorobenzyl)-5-oxo-4,5-dihydro-1H-1,2,4-triazol-1-yl)benzyl)pyridin-2-yl)oxy)cyclobutane-1-carbonitrile]	100 to 1000
